#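 Compound exposure: 48 hours, 5 concentrations, 96-well plates. GI50 = concentration required for 50% inhibition of growth. Definition used: TGI = concentration required for complete inhibition of growth.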 Where a SMILES comes first, the peptide text is derived from it. [ ]: non-standard residue; d: D form. The star is where a group is joined. ξ: configuration not given here. Propanoyl(3-(4-MeO-Ph)) = COc1ccc(CCC(=O)*)cc1; Thr(3ξ) = CC(O)[C@H](N)C(=O)O; dNMeL = CN[C@H](CC(C)C)C(=O)O; ξLac = CC(O)C(=O)O
# Legend:
# Assay in all cases: NCI tumour cell line growth inhibition, 48 h
# 786-0 renal = system: 786-0 renal
# HCT-15 colon = system: HCT-15 colon
# OVCAR-8 ovarian = system: OVCAR-8 ovarian
# MDA-MB-231 breast = system: MDA-MB-231 breast
# UACC-62 melanoma = system: UACC-62 melanoma
# MOLT-4 leukemia = system: MOLT-4 leukemia
# NCI-H522 lung = system: NCI-H522 lung
# HL-60(TB) leukemia = system: HL-60(TB) leukemia
# UACC-257 melanoma = system: UACC-257 melanoma
# COLO 205 colon = system: COLO 205 colon
Structure (SMILES),TGI (786-0 renal) [µM],TGI (HCT-15 colon) [µM],TGI (OVCAR-8 ovarian) [µM],TGI (MDA-MB-231 breast) [µM],TGI (UACC-62 melanoma) [µM],TGI (MOLT-4 leukemia) [µM],TGI (NCI-H522 lung) [µM],TGI (HL-60(TB) leukemia) [µM],TGI (UACC-257 melanoma) [µM],TGI (COLO 205 colon) [µM],GI50 (HL-60(TB) leukemia) [µM]
Cc1ccc(C(=O)C2=CN=C3C(=O)N(c4ccccc4)N(C)C3(C)C2=N)cc1 (centres undefined),> 100,> 100,> 100,> 100,> 100,> 100,> 100,> 100,> 100,> 100,
C=CCCC(On1c(-c2ccc(Cl)cc2)csc1=S)c1ccccc1 (centres undefined),> 100,> 100,> 100,> 100,> 100,> 100,71.7,53.6,> 100,> 100,
CC1(C)OCC(COC(=O)NCn2cc(-c3ccccc3)nn2)O1 (centres undefined),> 100,> 100,> 100,> 100,,> 100,> 100,> 100,> 100,> 100,
CCCCC1(N=[N+]=[N-])C(=O)C2C=CC=C3c4ccccc4N(C1=O)C32 (centres undefined),> 31.6,> 31.6,> 31.6,> 31.6,> 31.6,> 31.6,25.1,> 100,30.9,> 31.6,
COc1ccc(-c2nnc(-c3ccncc3)o2)cc1,> 100,> 100,> 100,> 100,> 100,> 100,> 100,> 100,> 100,> 100,
CCNc1cc2c3c(c1)CCCN3CCC2,26,40.5,56.4,22.4,41,50.6,62.7,35,49.5,24.5,
COC(=O)c1c(O)ccc2c1c1c(n2Cc2ccccn2)C(=O)c2ccccc2C1=O,> 100,> 100,> 100,> 100,> 100,> 100,95.6,> 100,> 100,34.3,
COc1cccc2c1-c1c(OC)cccc1SS2,36.2,33.3,72.6,56.1,92.5,38.1,64.5,7.35,35.9,56.6,
COC(=O)[C@@H](NC(=O)[C@@H](CC(C)C)N(C)C(=O)[C@@H]1CCCN1C(=O)C(C)O)C(C)OC(=O)CCc1ccc(OC)cc1 (some centres undefined) (H-[ξLac]P[dNMeL][Thr(3ξ)](Propanoyl(3-(4-MeO-Ph)))-OMe),> 100,> 100,> 100,> 100,> 100,> 100,> 100,> 100,> 100,> 100,
COc1nc2ccc(CNc3ccc(C(=O)O)cc3)cc2nc1OC,> 10,> 10,> 10,> 10,> 10,> 10,> 10,> 10,> 10,> 10,
COc1ccc(CCNC(=O)CCCCCO)cc1OC,> 100,> 100,> 100,> 100,> 100,> 100,> 100,> 100,> 100,> 100,
COc1cc(/C=C2\N=C(C)N(n3c(-c4ccccc4)nc4ccccc4c3=O)C2=O)cc(OC)c1OC,> 100,> 100,> 100,> 100,> 100,> 100,> 100,> 100,> 100,> 100,
COc1ccc(S(=O)(=O)Nc2ccc(-c3csc(N4C(=O)/C(=C/c5ccccc5)N=C4c4ccccc4)n3)cc2)cc1Cl,> 100,49.5,> 100,46.2,> 100,> 100,> 100,87.4,> 100,> 100,
COc1ccc(N2C(N)=C(C#N)C(C#N)(C#N)C2c2cccc([N+](=O)[O-])c2)cc1 (centres undefined),29.1,30.3,32.8,29.1,30.1,25.7,20.7,> 25.7,27.6,24,
CN(C)CCCNc1cnc2cc3ccccc3cc2n1,> 100,56,59.4,41.4,30,81.7,55.5,68.3,42.5,38.8,
NNC(=O)CCC(NS(=O)(=O)c1ccc(Cl)cc1)C(=O)NN (centres undefined),> 100,> 100,> 100,> 100,> 100,> 100,> 100,> 100,> 100,> 100,
COc1ccc(NCc2cnc3nc(N)nc(N)c3c2C)cc1,> 100,> 100,,0.962,> 100,> 100,> 100,> 100,> 100,> 100,
O=C(O)CN(CC(=O)O)Cc1ccn(-c2cccc(-n3ccc(CN(CC(=O)O)CC(=O)O)n3)n2)n1,> 100,> 100,> 100,> 100,> 100,> 100,> 100,> 100,> 100,> 100,

Structure (SMILES),TGI (786-0 renal) [µM],TGI (HCT-15 colon) [µM],TGI (OVCAR-8 ovarian) [µM],TGI (MDA-MB-231 breast) [µM],TGI (UACC-62 melanoma) [µM],TGI (MOLT-4 leukemia) [µM],TGI (NCI-H522 lung) [µM],TGI (HL-60(TB) leukemia) [µM],TGI (UACC-257 melanoma) [µM],TGI (COLO 205 colon) [µM],GI50 (HL-60(TB) leukemia) [µM]
O=C(NN1C(=O)CSC1c1ccco1)c1ccncc1 (centres undefined),> 100,> 100,> 100,> 100,> 100,> 100,> 100,> 100,> 100,> 100,
COc1ccc2oc(=Nc3ccc(F)cc3)c(C(N)=O)cc2c1,40.4,> 100,> 100,39.3,> 100,> 100,> 100,> 100,> 100,> 100,
CNC(=O)c1ccccc1[S+]1c2cccc3cccc(c23)C(=O)N1C (centres undefined),> 100,> 100,> 100,> 100,> 100,> 100,> 100,> 100,> 100,> 100,
O=[N+]([O-])c1ccc2nc(/C=C(\O)c3ccccc3)c(/C=C(\O)c3ccccc3)nc2c1,44.3,> 100,42,39.4,18.8,40.5,38.7,52.6,> 100,> 100,13.6
NC(=O)C[C@H](NC(=O)C1(NC(=O)[C@H](Cc2ccc(CP(=O)(O)O)cc2)NC(=O)C(=O)O)CCCCC1)C(=O)NCCCc1cccc2ccccc12,> 10,> 10,> 10,> 10,> 10,> 10,> 10,> 10,> 10,> 10,
N#CCOc1cccc(C2(N3CC=CCC3)CCCCC2)c1,> 100,> 100,> 100,> 100,> 100,> 100,> 100,> 100,> 100,> 100,
COP(=O)(OC)c1ccc(NCc2cc(O)ccc2O)cc1,58.1,50.2,> 71.2,> 57.8,43.9,> 86.3,> 71.8,> 92.2,> 56.1,> 64.6,
COc1ccc(-c2nnc(CCCCCCCCc3nnc(-c4ccc(OC)cc4)n3N)n2N)cc1,> 31.6,> 100,> 31.6,> 100,> 100,> 100,> 100,> 100,> 100,> 100,
Cc1cc2c(cc1-c1cc3c(cc1C)C(C(C)C)=C(O)C(=O)/C3=C\Nc1c(C)n(C)n(-c3ccccc3)c1=O)/C(=C/Nc1c(C)n(C)n(-c3ccccc3)c1=O)C(=O)C(O)=C2C(C)C,> 100,> 100,> 100,> 100,> 100,> 100,> 100,> 100,> 100,> 100,
Cc1oncc1NC1=CC(=O)C(=O)c2ccccc21,32.2,12.2,11.9,32.8,8.4,11.9,19.2,7.06,9.34,37.1,
CCCCCC(O)(CCCCC)CCCCCCCCC1=C(O)c2ccccc2C(=O)C1=O,30.5,15.6,33,32,21.1,12.4,67.9,14,> 66.5,42.4,
Cc1nc2c(Cl)cc(Cl)cc2c(Cl)c1CCCl,> 100,> 100,> 100,> 100,> 100,> 100,> 100,> 100,> 100,> 100,
CC(C)(C)OC(=O)N1Cc2cc(O)ccc2C[C@H]1C(=O)O,> 100,> 100,> 100,> 100,> 100,> 100,> 100,> 100,> 100,> 100,
COc1cc(C2c3cc4c(cc3OC3(OC)COC(=O)C23)OCO4)cc(OC)c1OC (centres undefined),> 27.1,20.1,6.12,2.08,> 20.5,12.2,3.19,13.6,> 100,0.64,
COc1cc(/C=c2/c3ccccc3n3c2cc(-c2ccccc2)[n+]3C)cc(OC)c1OC,16.4,18.5,12.9,14.8,10.5,> 64.9,9.6,7.2,7.68,3.22,
CCCC(=O)Nc1cc(/C=C/C(=O)N2CC(CCl)c3c2cc([N+](=O)[O-])c2ccccc32)n(C)c1 (centres undefined),> 100,> 100,> 100,> 100,> 100,> 100,> 100,27.2,> 100,> 100,
CN(C)CCNC(=O)c1cccc2[nH]c(-c3ccncc3)nc12,4.15,10.4,> 40.2,9.74,10.8,> 100,3.97,4.06,3.51,3.26,
CCCCCCCCCCCCCCCCCCOc1ccc(/C=C/C2=[N+](CCCl)CCO2)cc1,> 100,> 100,> 100,> 100,> 100,> 100,> 100,> 100,> 100,> 100,

# — PubChem BioAssay (NCI)
